Reference: US12357615B2, “Compositions for the treatment of brain tumors” (Kembi Therapeutics Pty Ltd, priority 2018, dated 2025)

Assays:
[1] = tested on: T98G AR positive glioblastoma multiforme cell line; assay: GBM tumor cell line inhibition assay (colony formation), T98G; type: cell-based; details: Homo sapiens; T98 (T98G), AR positive GBM cells, 10-12 days; read-out: GI50 (growth inhibition, colony formation)
Description: (§1) The term “percent colony formation” as used herein is the number of colonies after treatment with seviteronel and normalized to the number of colonies formed in the absence of seviteronel.
(§2) AR positive and AR negative GBM cells were plated at clonal density and 1-2 days later were treated with the test compounds at the indicated concentrations. After 10-12 days, the plates were stained with crystal violet. The number of colonies were then counted and normalized to the number of colonies formed in the absence of the test compounds. The results were plotted using Graphpad Prism.

[2] = tested on: 8MGBA AR negative glioblastoma multiforme cell line; assay: GBM tumor cell line inhibition assay (colony formation), 8MGBA; type: cell-based; details: AR negative GBM cells
Description: as §1, §2

[3] = tested on: AM38 AR negative glioblastoma multiforme cell line; assay: GBM tumor cell line inhibition assay (colony formation), AM38; type: cell-based; details: AM38, AR negative GBM cells
Description: as §1, §2

[4] = tested on: LN18 AR positive cell line; assay: Clonogenic survival after radiation with seviteronel, LN18; type: cell-based; details: 2.5 μM seviteronel 24 hours before radiation 0-8 Gy
Description: (§3) The term “surviving fraction” as used herein is the fraction of cells that retain their reproductive integrity after radiation normalized to the fraction of cells seeded and the colonies formed in the absence of irradiation
(§4) The term “enhancement ratio” as used herein is the ratio of the Dmid (the area under the radiation survival curve, which reflects the effectiveness of radiation) in the absence of seviteronel divided by the Dmid in the presence of seviteronel.
(§5) AR positive or negative GBM cell lines were treated with seviteronel (2.5-5 uM) for 24 hours prior to treatment with a single fraction of ionizing radiation (0-8 Gy) and then replated at clonal density. After 10-14 days, cells were stained with crystal violet and colonies were counted and normalized to conditions without radiation. Enhancement ratios were calculated by dividing the Dmid (the area under the clonogenic-survival curve) of control conditions by the Dmid of the seviteronel-treated cells.

[5] = tested on: T98G AR positive cell line; assay: Clonogenic survival after radiation with seviteronel, T98G; type: cell-based; details: 5 μM seviteronel 24 hours before radiation 0-8 Gy
Description: as §3, §4, §5

[6] = tested on: 8MGBA AR negative cell line; assay: Clonogenic survival after radiation with seviteronel, 8MGBA; type: cell-based; details: seviteronel 2.5-5 uM 24 hours before radiation 0-8 Gy
Description: as §3, §4, §5

[7] = tested on: AM38 AR negative cell line; assay: Clonogenic survival after radiation with seviteronel, AM38; type: cell-based; details: seviteronel 2.5-5 uM 24 hours before radiation 0-8 Gy
Description: as §3, §4, §5

T98G xenograft [8] = assay: Mouse T98G xenograft model, seviteronel and radiation therapy; type: in vivo
Description: T98G cancer cells were implanted into the flanks of DHT-bearing female C.B-17 SCID mice. After tumors reached approximately 100 mm3 in size, tumors were randomized into control, seviteronel alone (75 mg/kg for 30 days), radiation alone (2 Gy×6 fractions), or combined radiation and seviteronel treatment groups. Tumor size was measured over time and time to tumor doubling was estimated using the Kaplan-Meyer method. The results were plotted using Graphpad Prism.

T98G xenograft [9] = details: implanted DHT pellets versus no DHT, female C.B-17 SCID mice
Description: T98G cancer cells were implanted into the flanks female C.B-17 SCID mice with or without implanted DHT pellets. Tumor size was measured over time. The results were plotted using Graphpad Prism.

Structure (SMILES)	GI50 [1] [µM]	effect on growth [2]	effect on growth [3]	enhancement ratio (Dmid without / with seviteronel) [4]	enhancement ratio (Dmid without / with seviteronel) [5]	enhancement ratio (Dmid without / with seviteronel) [6]	enhancement ratio (Dmid without / with seviteronel) [7]	tumor volume increase over 35 days (T98G xenograft [8]; seviteronel 75 mg/kg days 1-30 plus radiation therapy 2 Gy x 6 fractions days 2-7)	mice with doubling in tumor volume after 30 days (T98G xenograft [8]; seviteronel 75 mg/kg plus radiation therapy 2 Gy x 6 fractions)	tumor volume increase over 35 days (T98G xenograft [8]; seviteronel alone, 75 mg/kg for 30 days, untreated approximately 5 fold)	time to tumor doubling (T98G xenograft [8]; seviteronel alone, 75 mg/kg for 30 days, untreated within 15 days) [days]	tumor volume over time (T98G xenograft [9])
CC(C)[C@](O)(c1ccc2cc(OC(F)F)c(OC(F)F)cc2c1)c1c[nH]nn1 [seviteronel]	4	little to no effect	little to no effect	1.5	1.32	1.0	1.03	approximately 50%	none	2-3 fold	≤ 30	
C[C@]12CCC(=O)C[C@@H]1CC[C@@H]1[C@@H]2CC[C@]2(C)[C@@H](O)CC[C@@H]12 [DHT, Dihydrotestosterone]												increased more rapidly
